Test results published in publication PMC10257657, “A flavin-monooxygenase catalyzing oxepinone formation and the complete biosynthesis of vibralactone” (Nature Communications, 2023).

Legend:
PHHY = molecular target: T1, PHHY (Cutaneotrichosporon cutaneum, UniProt P15245); experiment: enzyme assay, catechol production; format: cell-based; conditions: E. coli-expressed enzyme; purification not told in main text
T1 construct: synthesized gene expressed in E. coli; FAD-dependent

VibO [1] = molecular target: T2, VibO (Boreostereum vibrans, UniProt A0AA82WP17, D99A); experiment: LC-MS peak area of product […]; format: biochemical; conditions: 6 0.5 mM, NADPH 0.1 mM, pH 7.5, 28 °C, 2 h; hydroxylation to 7
T2 construct: full length, N-terminal His6 tag, expressed in E. coli BL21(DE3) (pET28a(+)); domains cover residues 1-653; dimer; copurified FAD

VibO [2] = molecular target: T3, VibO (Boreostereum vibrans, UniProt A0AA82WP17, D99N); experiment: LC-MS peak area of product […]; format: biochemical; conditions: 6 0.5 mM, NADPH 0.1 mM, pH 7.5, 28 °C, 2 h; hydroxylation to 7
T3 construct: full length, N-terminal His6 tag, expressed in E. coli BL21(DE3) (pET28a(+)); domains cover residues 1-653; dimer; copurified FAD

VibO [3] = molecular target: T4, VibO (Boreostereum vibrans, UniProt A0AA82WP17, F265Y); experiment: LC-MS peak area of product […]; format: biochemical; conditions: 6 0.5 mM, NADPH 0.1 mM, pH 7.5, 28 °C, 2 h; hydroxylation to 7
T4 construct: full length, N-terminal His6 tag, expressed in E. coli BL21(DE3) (pET28a(+)); domains cover residues 1-653; dimer; copurified FAD
T4 sequence (A0AA82WP17 entry or part of it F265Y): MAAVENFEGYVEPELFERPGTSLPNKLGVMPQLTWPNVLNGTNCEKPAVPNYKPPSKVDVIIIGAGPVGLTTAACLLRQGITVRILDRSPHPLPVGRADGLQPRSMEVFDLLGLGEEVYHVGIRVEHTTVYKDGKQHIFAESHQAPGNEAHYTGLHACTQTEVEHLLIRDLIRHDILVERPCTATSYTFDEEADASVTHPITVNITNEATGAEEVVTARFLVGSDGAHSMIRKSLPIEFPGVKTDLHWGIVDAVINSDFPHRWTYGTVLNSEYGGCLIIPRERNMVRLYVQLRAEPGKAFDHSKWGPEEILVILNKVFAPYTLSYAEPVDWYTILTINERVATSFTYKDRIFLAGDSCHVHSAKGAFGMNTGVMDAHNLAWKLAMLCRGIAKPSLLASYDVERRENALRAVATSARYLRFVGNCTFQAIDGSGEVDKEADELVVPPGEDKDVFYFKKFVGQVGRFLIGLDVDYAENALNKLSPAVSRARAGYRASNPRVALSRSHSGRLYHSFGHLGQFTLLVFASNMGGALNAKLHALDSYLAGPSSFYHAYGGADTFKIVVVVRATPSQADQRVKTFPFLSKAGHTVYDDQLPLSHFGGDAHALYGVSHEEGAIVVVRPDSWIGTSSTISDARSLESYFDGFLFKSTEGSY

T3 sequence (A0AA82WP17 entry or part of it D99N): as the sequence (A0AA82WP17 entry or part of it F265Y) above, with D99N, Y265F counted along it
T2 sequence (A0AA82WP17 entry or part of it D99A): as the sequence (A0AA82WP17 entry or part of it F265Y) above, with D99A, Y265F counted along it
T1 sequence (P15245 2-665): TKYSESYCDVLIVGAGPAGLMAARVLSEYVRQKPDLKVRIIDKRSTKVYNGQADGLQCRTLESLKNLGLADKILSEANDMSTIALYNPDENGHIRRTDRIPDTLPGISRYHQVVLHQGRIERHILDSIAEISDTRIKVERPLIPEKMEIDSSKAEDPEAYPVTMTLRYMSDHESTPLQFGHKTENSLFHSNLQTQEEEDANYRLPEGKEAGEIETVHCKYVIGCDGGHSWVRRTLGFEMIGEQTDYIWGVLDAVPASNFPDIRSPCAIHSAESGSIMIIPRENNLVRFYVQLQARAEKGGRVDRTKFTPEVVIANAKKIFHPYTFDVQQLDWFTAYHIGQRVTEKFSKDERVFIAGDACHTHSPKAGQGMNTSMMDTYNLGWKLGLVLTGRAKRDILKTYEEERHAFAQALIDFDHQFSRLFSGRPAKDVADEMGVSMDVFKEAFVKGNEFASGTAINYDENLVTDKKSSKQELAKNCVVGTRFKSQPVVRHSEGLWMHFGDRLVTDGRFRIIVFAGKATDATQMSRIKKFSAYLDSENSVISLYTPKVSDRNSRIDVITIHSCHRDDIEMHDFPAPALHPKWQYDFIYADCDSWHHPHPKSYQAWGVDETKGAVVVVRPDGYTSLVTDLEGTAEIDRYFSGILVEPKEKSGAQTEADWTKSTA

Structure (SMILES) | enzyme assay, catechol production (PHHY) | % of wild-type activity (production of 7) (VibO [1]) [%] | % of wild-type activity (production of 7) (VibO [2]) [%] | % of wild-type activity (production of 7) (VibO [3]) [%]
Oc1ccccc1 [phenol] | significant production of catechol was observed for PHHY incubating with phenol | – | – | –
CC(C)=CCc1cc(CO)ccc1O [compound 6, 3-prenyl-4-hydroxybenzylalcohol] | – | 16 | 10 | 22
